Results on six molecules are retold here after PMC7114261 (Antiviral Research, 2006).

The structures appear in SMILES notation. Several values for one entry are separate records, joined by “and”; a condition that tells them apart may be missing. Equal values may be shown once. Read-outs that look alike come from different tables or passages of the source.

Data set [1] deals with SARS-CoV, strain Urbani. The data set can be described thus: microbe, parasite or virus in culture. The class given is cell-based. The settings on record: Severe acute respiratory syndrome coronavirus; for IC50: Vero 76, read-out: NR assay IC50.
The test system of the next data set is SARS-CoV (Urbani). The arrangement: species or system BALB/c mice. The settings on record: mouse, in vivo.
The next data set in a line: in vivo. The settings on record: BALB/c, mouse.
For data set [2], the system named is SARS-CoV, strain Urbani. The data set can be described thus: microbe, parasite or virus in culture. Format: cell-based, Severe acute respiratory syndrome coronavirus.
Data set [3] deals with cytokines in lung homogenates. On the set-up: species or system BALB/c mice. Conditions: mouse, in vivo.
For the next data set, the system named is Vero 76 cells. Conditions: African green monkey.
In another data set the test system is SARS-CoV. Conditions: cited from earlier work.
Data set [4] in a line: in vitro. Conditions: African green monkey.
Data set [5] can be described thus: in vitro. Conditions: African green monkey, NR assay CC50.
[6] abbreviates: Severe acute respiratory syndrome coronavirus, Vero 76, read-out: Virus yield reduction assay IC90.

The IC50 is the midpoint of a concentration-inhibition curve. In the case of `NC(=O)c1ncn([C@@H]2O[C@H](CO)[C@@H](O)[C@H]2O)c1O` [Mizoribine, mizoribine], in the data set with SARS-CoV, strain Urbani [1], the IC50 is over 40 µM. In addition, in the data set with SARS-CoV (Urbani), the “Virus titer ± S.D., Day 3” value is 4.9 ± 0.3 log10 CCID50/g and 4.7 ± 0.6 log10 CCID50/g; the “Virus titer ± S.D., Day 7” value was determined as 0 log10 CCID50/g. In addition, in “in vivo”, the MTD is 25 mg/kg.

What is called EC50 is the concentration that produces a half-maximal response. One may read the EC90 as the point of the concentration-response curve where the effect stands at 90%. What is called IC90 is the concentration needed for an effect of 90%. As for `NC(=O)c1ncn([C@@H]2O[C@H](CO)[C@@H](O)[C@H]2O)n1` [Ribavirin, ribavirin], in the data set with SARS-CoV, strain Urbani [1] (Vero 76, read-out: EC50 by neutral red uptake assay, n = 4), the EC50 worked out at 270 ± 50 µM. Besides, the IC50 in the data set on SARS-CoV, strain Urbani [1] is 320 µM; in the data set with SARS-CoV it was 2 to 60 µg/mL. Moreover, the EC90 came out at 4100 µM in the data set with SARS-CoV, strain Urbani [2] (Severe acute respiratory syndrome coronavirus, Caco-2, read-out: EC90 by virus yield reduction assay) and 225 µM in the data set with SARS-CoV, strain Urbani [2] (Severe acute respiratory syndrome coronavirus, MA104, read-out: EC90 by virus yield reduction assay). The IC90 in the data set with SARS-CoV, strain Urbani [2] (setting [6]) was 560 µM; in the data set on SARS-CoV, strain Urbani [2] (read-out: Virus yield reduction assay IC90), 590 µM. Moreover, the “Virus in the lungs of mice sacrificed at day 7” value in the data set with SARS-CoV (Urbani) is given as “virus was not detected”. The Virus titer in the data set on SARS-CoV (Urbani) (75 mg/kg) is given as 0 log10 CCID50/g; with SARS-CoV (Urbani) (ip, 20 mg/kg), 0 log10 CCID50/g. Besides, the “GM-CSF level in lung homogenate” value in data set [3] was 7.9 ± 1.9 pg/mL and 10.7 ± 0.9 pg/mL and 7.9 ± 0.5 pg/mL and 15.7 ± 4.2 pg/mL. For the same molecule, the “IL-4 level in lung homogenate” value in data set [3] was 5.9 ± 3.5 pg/mL and 6.3 ± 0.3 pg/mL and 4.9 ± 0.9 pg/mL and 7.3 ± 0.5 pg/mL. In [3], the “IL-5 level in lung homogenate” value is 25.6 ± 2.0 pg/mL and 34.2 ± 2.1 pg/mL and 19.8 ± 1.7 pg/mL and 33.4 ± 0.4 pg/mL. Besides, the “IL-9 level in lung homogenate” value in [3] is 134.2 ± 39.3 pg/mL and 140.9 ± 6.7 pg/mL and 101.5 ± 25.7 pg/mL and 126.3 ± 67.6 pg/mL. In the data set with Vero 76 cells, the “average CC50” value is about 1685 µg/mL. Moreover, the CC50 was found to be 283 µM in “in vitro [4]” and 402 µM in “in vitro [5]”.

Turning to `N=C(N)c1ncn([C@@H]2O[C@H](CO)[C@@H](O)[C@H]2O)n1` [Viramidine, viramidine], in the data set on SARS-CoV, strain Urbani [1], the IC50 was over 410 µM.

For the molecule `C#Cc1c(C(N)=O)ncn1[C@@H]1O[C@H](CO)[C@@H](O)[C@H]1O` [EICAR, 5-ethynyl-1-β-D-ribofuranosylimidazole-4-carboxamide], the IC50 in the data set with SARS-CoV, strain Urbani [1] was 28 µM. Moreover, the IC90 with SARS-CoV, strain Urbani [2] (setting [6]) is over 40 µM. Also, in the data set on SARS-CoV (Urbani), the “Virus titer ± S.D., Day 3” value is 5.5 ± 0.5 log10 CCID50/g and 5.3 ± 0.3 log10 CCID50/g; the “Virus titer ± S.D., Day 7” value was found to be 0 log10 CCID50/g. In “in vivo”, the MTD amounted to 75 mg/kg.

Take `NC(=O)c1ncn([C@@H]2O[C@H](COP(=O)(O)O)[C@@H](O)[C@H]2O)n1` [Ribavirin monophosphate]: the IC50 in the data set on SARS-CoV, strain Urbani [1] is over 30 µM.

On to `COc1c(C)c2c(c(O)c1C/C=C(\C)CCC(=O)O)C(=O)OC2` [MPA, mycophenolic acid], for which the IC50 in the data set with SARS-CoV, strain Urbani [1] was over 30 µM. In addition, in the data set on SARS-CoV (Urbani), the “Virus titer ± S.D., Day 3” value is 5.5 ± 0.2 log10 CCID50/g and 5.3 ± 0.5 log10 CCID50/g; the “Virus titer ± S.D., Day 7” value was found to be 0 log10 CCID50/g. Besides, in the data set “in vivo”, the MTD came to 75 mg/kg.
